Data: patent US4717727A, “Esters of pyridine-2,4- and 2,5-dicarboxylic acid as medicaments for the inhibition of proline hydroxylase and lysine hydroxylase” (Hoechst Aktiengesellschaft, priority 1984, dated 1988)
pIC50: −log10 of the molar value.

Legend:
proline hydroxylase [1] = assay: Inhibition of collagen proline hydroxylation in organ culture (isolated calvariae / EHS sarcoma tissue), ratio of 14C-proline to 14C-hydroxyproline; format: cell-based; settings: Inhibition 50 %; incubation with 14C-proline, ratio 14C-proline to 14C-hydroxyproline in extracted collagen; read-out: Conc. giving the stated Inhibition, % (50)
Method: Determination of the inhibitory effect is described below.
(a) Tissue of the EHS sarcoma tumor, which produces an extracellular matrix resembling basal membrane and produces, in particular, type IV collagen (Erkin et al., Exp. Med. 145 (1977) 204-220), is incubated in analogy to the method of K. Tryggvason et al. (Biochemistry 19 (1980) 1248-1289) in the presence of ^14 C-proline and of inhibitors in various concentrations. After the incubation has been stopped, the tissue is homogenized and extracted with dilute acetic acid. After NaCl precipitation, the extracted collagen was hydrolyzed with 6 M HCl, and the ratio of ^14 C-proline to ^14 C-hydroxyproline was determined.
(b) Isolated calvariae are incubated in analogy to the method of B. Peterkovsky and R. DiBlasio (Anal. Biochem. 66 (1975) 279-286) in the presence of U-^14 C-proline and inhibitors. After the incubation has been stopped, the calvariae are homogenized, and the collagen is extracted with dilute acetic acid. After hydrolysis of the extract with 6 M HCl, the ratio of ^14 C-proline to ^14 C-hydroxyproline is determined.

proline hydroxylase [2] = target: T1, proline hydroxylase (Gallus gallus, UniProt P16924); settings: cited from earlier work
T1 sequence (P16924 1-516): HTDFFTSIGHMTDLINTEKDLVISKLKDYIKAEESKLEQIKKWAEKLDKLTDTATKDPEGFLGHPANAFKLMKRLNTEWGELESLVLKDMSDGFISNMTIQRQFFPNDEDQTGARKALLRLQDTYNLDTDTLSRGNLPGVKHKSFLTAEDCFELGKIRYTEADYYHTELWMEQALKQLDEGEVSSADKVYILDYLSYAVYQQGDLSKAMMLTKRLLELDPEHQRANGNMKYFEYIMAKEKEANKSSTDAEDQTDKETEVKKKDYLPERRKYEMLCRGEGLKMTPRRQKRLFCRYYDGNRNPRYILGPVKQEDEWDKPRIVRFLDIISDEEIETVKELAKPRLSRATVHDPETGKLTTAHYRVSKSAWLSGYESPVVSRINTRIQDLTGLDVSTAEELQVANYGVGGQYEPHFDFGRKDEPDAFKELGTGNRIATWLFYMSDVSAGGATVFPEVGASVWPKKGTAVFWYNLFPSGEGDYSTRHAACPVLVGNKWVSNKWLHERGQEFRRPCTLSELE
T1 sequence (P09102 23-515 partner): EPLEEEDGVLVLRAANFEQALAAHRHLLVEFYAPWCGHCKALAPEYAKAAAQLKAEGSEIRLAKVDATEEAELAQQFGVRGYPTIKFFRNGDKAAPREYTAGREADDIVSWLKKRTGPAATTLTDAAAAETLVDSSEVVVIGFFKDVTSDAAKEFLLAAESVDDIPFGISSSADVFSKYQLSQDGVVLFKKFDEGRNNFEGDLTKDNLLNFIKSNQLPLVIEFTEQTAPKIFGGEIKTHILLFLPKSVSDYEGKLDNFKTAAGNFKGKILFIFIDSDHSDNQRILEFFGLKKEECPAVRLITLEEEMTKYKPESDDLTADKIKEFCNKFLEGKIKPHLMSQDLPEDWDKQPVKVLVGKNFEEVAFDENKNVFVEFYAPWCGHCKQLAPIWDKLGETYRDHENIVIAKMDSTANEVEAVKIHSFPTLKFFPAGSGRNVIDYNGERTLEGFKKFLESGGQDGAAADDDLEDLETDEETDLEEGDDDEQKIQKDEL

[3] = test system: collagen biosynthesis in cell culture; settings: cited from earlier work
[4] = test system: Clq biosynthesis by macrophages; settings: cited from earlier work

Row | SMILES | pIC50 (proline hydroxylase [1]) | inhibition of proline hydroxylase (proline hydroxylase [2]) | inhibitory effectiveness in cell culture [3] | inhibition of Clq biosynthesis by macrophages [4]
1 | CCOC(=O)c1ccnc(C(=O)OCC)c1 [C2 H5 4] | 5.52 | – | – | –
2 | CCOC(=O)c1ccc(C(=O)OCC)nc1 [C2 H5 5] | 4.05 | – | – | –
3 | O=C(O)c1ccnc(C(=O)O)c1 [H 4] | 3.17 | effectively inhibited | effective inhibitors only in very high concentrations | –
4 | O=C(O)c1ccc(C(=O)O)nc1 [H 5] | 2.68 | effectively inhibited | effective inhibitors only in very high concentrations | –
5 | c1ccc(-c2ccccn2)nc1 [α,α'-dipyridyl] | – | – | – | leads to inhibition of Clq biosynthesis
